This note sets out measurements from PubChem BioAssay AID1259407 (Chemical Carcinogenesis Research Information System (CCRIS), 2018).

The source made the active and inactive calls. The rule behind the calls is not given here.

The subject of the data set is CCRIS mutagenicity, Ames/micronucleus/aberration tests. As to the kind of experiment: CCRIS mutagenicity studies.
The mark [1] stands for this setting: Test System: AMES SALMONELLA TYPHIMURIUM, Strain/Indicator: TA98, Metabolic Activation: NONE, Method: PREINCUBATION
Where [2] appears, read: Test System: AMES SALMONELLA TYPHIMURIUM, Strain/Indicator: TA100, Metabolic Activation: NONE, Method: PREINCUBATION
Setting [3] is: Test System: AMES SALMONELLA TYPHIMURIUM, Strain/Indicator: TA1535, Metabolic Activation: NONE, Method: PREINCUBATION

For `CC/C=C1\OC(=O)c2ccccc21`, the mutagenic call (Test System: AMES SALMONELLA TYPHIMURIUM, Strain/Indicator: TA97, Metabolic Activation: HAMSTER, LIVER, S-9, AROCLOR 1254 (10%), Method: PREINCUBATION) was “inactive; negative”; the mutagenic call (Test System: AMES SALMONELLA TYPHIMURIUM, Strain/Indicator: TA97, Metabolic Activation: NONE, Method: PREINCUBATION) is “inactive; negative”; the mutagenic call (Test System: AMES SALMONELLA TYPHIMURIUM, Strain/Indicator: TA97, Metabolic Activation: RAT, LIVER, S-9, AROCLOR 1254 (10%), Method: PREINCUBATION) was “inactive; negative”; the mutagenic call (Test System: AMES SALMONELLA TYPHIMURIUM, Strain/Indicator: TA98, Metabolic Activation: HAMSTER, LIVER, S-9, AROCLOR 1254 (10%), Method: PREINCUBATION) is “inactive; negative”; the mutagenic call under setting [1] is “inactive; negative”; the mutagenic call (Test System: AMES SALMONELLA TYPHIMURIUM, Strain/Indicator: TA98, Metabolic Activation: RAT, LIVER, S-9, AROCLOR 1254 (10%), Method: PREINCUBATION) is “inactive; negative”. For the same compound, the mutagenic call by setting is: (Test System: AMES SALMONELLA TYPHIMURIUM, Strain/Indicator: TA100, Metabolic Activation: HAMSTER, LIVER, S-9, AROCLOR 1254 (10%), Method: PREINCUBATION) “inactive; negative”; under setting [2], “inactive; negative”; (Test System: AMES SALMONELLA TYPHIMURIUM, Strain/Indicator: TA100, Metabolic Activation: RAT, LIVER, S-9, AROCLOR 1254 (10%), Method: PREINCUBATION) “active; positive”; (Test System: AMES SALMONELLA TYPHIMURIUM, Strain/Indicator: TA1535, Metabolic Activation: HAMSTER, LIVER, S-9, AROCLOR 1254 (10%), Method: PREINCUBATION) “inactive; negative”; under setting [3], “inactive; negative”; (Test System: AMES SALMONELLA TYPHIMURIUM, Strain/Indicator: TA1535, Metabolic Activation: RAT, LIVER, S-9, AROCLOR 1254 (10%), Method: PREINCUBATION) “inactive; negative”.
With `CC(O)CN(CC(C)O)CC(C)O` (stereo unspecified) (tested in a mixture with another compound), the mutagenic call by setting is: under setting [1], “inactive; negative”; (Test System: AMES SALMONELLA TYPHIMURIUM, Strain/Indicator: TA98, Metabolic Activation: RAT LIVER S-9, AROCLOR 1254, 10%, Method: PREINCUBATION) “inactive; negative”; under setting [2], “inactive; negative”; (Test System: AMES SALMONELLA TYPHIMURIUM, Strain/Indicator: TA100, Metabolic Activation: RAT LIVER S-9, AROCLOR 1254, 10%, Method: PREINCUBATION) “inactive; negative”; under setting [3], “inactive; negative”; (Test System: AMES SALMONELLA TYPHIMURIUM, Strain/Indicator: TA1535, Metabolic Activation: RAT LIVER S-9, AROCLOR 1254, 10%, Method: PREINCUBATION) “inactive; negative”. Also, the mutagenic call reads like this: (Test System: AMES SALMONELLA TYPHIMURIUM, Strain/Indicator: TA1537, Metabolic Activation: NONE, Method: PREINCUBATION) “inactive; negative”; (Test System: AMES SALMONELLA TYPHIMURIUM, Strain/Indicator: TA1537, Metabolic Activation: RAT LIVER S-9, AROCLOR 1254, 10%, Method: PREINCUBATION) “inactive; negative”; (Test System: UDS RAT HEPATOCYTES, Strain/Indicator: THYMIDINE INCORPORATION, Metabolic Activation: NONE, Method: AUTORADIOGRAPHY) “inactive; negative”.
